Data published in EP1726305A1, “Zinc salt of omeprazole and its enantiomers” (Ratiopharm GmbH, priority 2005, dated 2006).
In brackets after ≈: the same amount, converted by molar mass. Where two headings read alike, the source gives them in different places.

Experiments:
Format in all cases: physicochemical
[1] = Bulk density and tapped density (Ph.Eur. 2.9.15, Erweka SVM 22 volumeter, 1250 taps); conditions: mean of three determinations; for Stampfdichte: after 1250 taps
Method: Sofern nichts anderes angegeben ist, erfolgt die Bestimmung der Schüttdichte und Stampfdichte nach Ph.Eur. 5.0 General Notices 2.9.15.
(§1) Insbesondere wurde zur Bestimmung der Schüttdichte jeweils etwa 250 ml Substanz, möglichst erschütterungsfrei in einen 250 ml Meßzylinder des Schütt-Stampf-Volumeters (Erweka SVM 22, Ser. Nr. 108.480.446) gefüllt und die Masse bestimmt (Schüttgewicht). Anschließend wurde der Meßzylinder 1250 Stampfvorgängen ausgesetzt, und das Stampfvolumen wurde abgelesen. Die Werte für die Schütt- bzw. Stampfdichte erhält man durch Division der Einwaage durch die jeweiligen Volumenwerte. Die Bestimmung wurde dreifach durchgeführt und aus den Einzelergebnissen jeweils der Mittelwert gebildet. Die Löslichkeit wurde bei Zimmertemperatur (25°C) bei verschiedenen pH-Werten untersucht, indem festes Material in den jeweiligen Medien durch Ultraschall und Schütteln soweit als möglich gelöst wurde. Die Proben wurden filtriert und über HPLC analysiert und mittels UV-Detektion vermessen.
Auf folgende Art und Weise wurde die Schüttdichte und die Stampfdichte des nach Beispiel 1 hergestellten Zinksalzes des (-)-Enantiomers des Omeprazols bestimmt und mit den auf entsprechende Art und Weise bestimmten Werten des Magnesiumsalzes des (-)-Enantiomers des Omeprazols verglichen. Das Magnesiumsalz des (-)-Enantiomers des Omeprazols wurde entsprechend der Offenbarung der WO 94/27988 hergestellt.
Zur Bestimmung der Schüttdichte wurden jeweils 250 ml Substanz möglichst erschütterungsfrei in einen 250 ml Meßzylinder des Schütt-Stampf-Volumeters (Erweka SVM 22, Ser. Nr. 108.480.446) gefüllt und die Masse bestimmt (Schüttgewicht). Anschließend wurde der Meßzylinder 1250 Stampfvorgängen ausgesetzt, und das Stampfvolumen wurde abgelesen. Die Werte für die Schütt- bzw. Stampfdichte erhält man durch Division der Einwaage durch die jeweiligen Volumenwerte. Die Bestimmung wurde dreifach durchgeführt und aus den Einzelergebnissen jeweils der Mittelwert gebildet. Tabelle 1

[2] = Solubility of saturated solutions in aqueous media, HPLC/UV; conditions: for solubility thermodynamic at 0.5 h: saturated solution, n=1, 30 min ultrasound, read-out: Löslichkeit; for Löslichkeit: 0.5 h
Method: as §1
Die Löslichkeit des Zinksalzes des (-)-Enantiomers des Omeprazols und des Magnesiumsalzes des (-)-Enantiomers des Omeprazols wurde wie folgt bestimmt. In den unten aufgeführten Medien wurden gesättigte Lösungen (n=1) hergestellt, die nach 30 Minuten Ultraschallbehandlung noch einen deutlichen Bodensatz zeigten. Der Überstand der gesättigten Lösungen wurde über einen Membranfilter (0,45µm, Millex HV 25 mm, Millipore) filtriert und die klare Lösung mittels einer HPLC-Methode auf den Gehalt des gelösten Salzes untersucht. (Reversed Phase Chromatographie, Gradientenmodus, Säule: Luna C18(2), 150 x 3 mm, Phenomenex, Eluent 1: 10mM Tris-(hydroxymethyl)-aminomethan-Puffer pH 9.0, Eluent 2 : Acetonitril).
Das Zinksalz des (-)-Enantiomers des Omeprazols wurde gemäß Beispiel 1 vorstehend hergestellt, das Magnesiumsalz des (-)-Enantiomers des Omeprazols gemäß der Offenbarung der WO 94/27988.

[3] = Water content by Karl Fischer titration (Ph.Eur. 2.5.32); conditions: oven temperature 130 °C
From the text: Während das Magnesiumsalz als Trihydrat vorliegt und daher per se einen erheblichen Wassergehalt von etwa 6,23% aufweist, ist der Wassergehalt des Zinksalzes des (-)-Enantiomers des Omeprazols ausgesprochen gering und liegt bei nur etwa 0,8%, was ebenfalls einen überraschenden Vorteil des Zinksalzes des (-)-Enantiomers des Omeprazols ausmacht. Diese Messungen erfolgten mittels Karl-Fischer-Titration gemäß Ph.Eur. 2.5.32 mit dem Gerät Aqua 40.00 (Fa. ECH Halle). Das Gerät war ausgestattet mit einem Ausheizofen für Feststoffproben. Die Ausheiztemperatur für die untersuchte substanz betrug 130 °C: Als KF-Reagenz wurde eingesetzt Hydranal (Coulomat AG, Riedel-de Haen. Als Standard wurde verwendet Natriumtartrat-dihydrat (Apura, Merck).

## COc1ccc2nc([S@@+]([O-])Cc3ncc(C)c(OC)c3C)[nH]c2c1 [Magnesiumsalz des (-)-Enantiomers des Omeprazols]
[1]
  Stampfdichte: 242,68 g/l
  Schüttdichte: 199,00 g/l
[2]; demineralised water, dem. Wasser
  solubility thermodynamic at 0.5 h: 930 µg/mL (≈ 2690 µM)
[2]; usp buffer, pH 6, aqueous buffer, USP-Puffer pH 6,0
  solubility thermodynamic at 0.5 h: 780 µg/mL (≈ 2260 µM)
[2]; usp buffer, pH 6, aqueous buffer, USP-Puffer pH 6,8
  solubility thermodynamic at 0.5 h: 900 µg/mL (≈ 2610 µM)
[2]; usp buffer, pH 7, aqueous buffer, USP-Puffer pH 7,4
  solubility thermodynamic at 0.5 h: 890 µg/mL (≈ 2580 µM)
[3]
  Wassergehalt: ~6,23%

## Zinksalz des (-)-Enantiomers von Omeprazol [Zinksalz des (-)-Enantiomers des Omeprazols]
[1]
  Stampfdichte: 481,59 g/l
  Schüttdichte: 415,62 g/l
[2]; demineralised water
  Löslichkeit: 0,02 mg/ml
[2]; usp buffer, pH 6
  Löslichkeit: 0,07 mg/ml
[2]; usp buffer, pH 7
  Löslichkeit: 0,04 mg/ml
[3]
  Wassergehalt: ~0,8%
